Several values for one entry are separate records, joined by “and”; a condition that tells them apart may be missing. Identical values can stand only once.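 Cells were grown in 96-well plates and exposed to each compound for 48 hours at five concentrations; endpoints were interpolated linearly between bracketing concentrations, or set to the highest concentration if not reached. At the GI50, growth is halved. TGI marks complete inhibition of growth.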 Where only a bound is given, the exact number is not on record here.

One assay has as its system TK-10 renal. Put plainly: growth of human tumour cells (NCI), 48 h.
`Nc1nc(N)c(N=Nc2ccc([As](=O)(O)O)cc2)c(=O)[nH]1` came in with a TGI above 100 µM.
Regarding `COc1ccc2[nH]cc(-c3nc(-c4c[nH]c5ncccc45)cs3)c2c1`, the GI50 was 5.47 µM and the TGI was above 100 µM.
In the case of `CCOC(=O)C(=Cc1cccc(Cl)c1)C(=O)OCC`, the GI50 is 2.46 µM and the TGI stood at 6.08 µM.
`C=CC(=O)N1CCC(C2CCNc3c(C(N)=O)c(-c4ccc(Oc5ccccc5)cc4)nn32)CC1` (centres undefined): the GI50 is 1.29 µM and the TGI was 11.6 µM.
Consider `Cc1ccc(/C=C/c2c(C(=O)/C=C/c3ccc(C(F)(F)F)cc3)c(C)nc3ccccc23)cc1`, for which the GI50 was 2.36 µM and the TGI stood at 3.9 µM.
Regarding `C=CCc1cccc(/C=N/NC(=O)CN2CCN(Cc3ccccc3)CC2)c1O`, the GI50 was 0.925 µM and the TGI stood at 15.1 µM.
`N=c1ccn2c(n1)OC1C(O)C(CO)OC12` (centres undefined) gave a TGI above 1000 µM.
As for `C[C@H]1Oc2cc(cnc2N)-c2c(nn(C)c2C#N)CN(C)C(=O)c2ccc(F)cc21`, the GI50 is 36.5 µM and the TGI is above 100 µM.
Consider `COc1ccccc1N1CCN(CCCn2c(=O)c3c(OC)nc(C)cc3c(=O)n2-c2ccccc2)CC1`, for which the GI50 was above 100 µM and the TGI was above 100 µM.
For the compound `N#Cc1c(-c2ccc(F)cc2)c(-c2ccc(F)cc2)nn(CCO)c1=O`, the TGI is above 100 µM.
As for `CC(=O)c1cc2c(o1)C(=O)c1ccccc1C2=O`, the GI50 was 0.248 µM and 1.4 µM; the TGI is 0.595 µM and 2.9 µM.
Take `CCN(CC)c1nc(-c2ccc(Cl)cc2Cl)nc2ccccc12`: the GI50 is 23.8 µM and the TGI was 63.3 µM.
For `Cc1nc2ccccc2nc1-c1ccc(N=[N+]([O-])c2ccc(-c3nc4ccccc4nc3C)cc2)cc1`, the TGI is 50.5 µM.

For the next assay, the system named is MDA-MB-435. The assay is described as follows: growth of human tumour cells (NCI), 48 h.
With `Nc1nc(N)c(N=Nc2ccc([As](=O)(O)O)cc2)c(=O)[nH]1`, the TGI was above 100 µM.
As to `COc1ccc2[nH]cc(-c3nc(-c4c[nH]c5ncccc45)cs3)c2c1`, the GI50 was 5.87 µM and the TGI is above 100 µM.
Regarding `CCOC(=O)C(=Cc1cccc(Cl)c1)C(=O)OCC`, the GI50 was 2.07 µM and the TGI amounted to 5.04 µM.
On the same counts, the results for `C=CC(=O)N1CCC(C2CCNc3c(C(N)=O)c(-c4ccc(Oc5ccccc5)cc4)nn32)CC1` (centres undefined) are 13.4 µM and 38 µM.
For `Cc1ccc(/C=C/c2c(C(=O)/C=C/c3ccc(C(F)(F)F)cc3)c(C)nc3ccccc23)cc1` the same measures were 1.49 µM and 2.89 µM.
`C=CCc1cccc(/C=N/NC(=O)CN2CCN(Cc3ccccc3)CC2)c1O`: the GI50 was 2.86 µM and the TGI was found to be 13.3 µM.
On the same counts, the results for `N=c1ccn2c(n1)OC1C(O)C(CO)OC12` (centres undefined) are 2.59 µM and above 1000 µM.
Take `C[C@H]1Oc2cc(cnc2N)-c2c(nn(C)c2C#N)CN(C)C(=O)c2ccc(F)cc21`: the GI50 was 48.6 µM and the TGI was above 100 µM.
Regarding `COc1ccccc1N1CCN(CCCn2c(=O)c3c(OC)nc(C)cc3c(=O)n2-c2ccccc2)CC1`, the GI50 is above 100 µM and the TGI was above 100 µM.
The compound `N#Cc1c(-c2ccc(F)cc2)c(-c2ccc(F)cc2)nn(CCO)c1=O` registered a TGI of 0.608 µM.
Turning to `CC(=O)c1cc2c(o1)C(=O)c1ccccc1C2=O`, the GI50 was 0.089 µM and 0.181 µM; the TGI was 0.238 µM and 0.33 µM.
As to `CCN(CC)c1nc(-c2ccc(Cl)cc2Cl)nc2ccccc12`, the GI50 was 18.7 µM and the TGI turned out to be 48.3 µM.
In turn, `Cc1nc2ccccc2nc1-c1ccc(N=[N+]([O-])c2ccc(-c3nc4ccccc4nc3C)cc2)cc1` gave a TGI above 100 µM.

The next assay relates to SF-295 CNS. Put plainly: growth of human tumour cells (NCI), 48 h.
`Nc1nc(N)c(N=Nc2ccc([As](=O)(O)O)cc2)c(=O)[nH]1` yielded a TGI above 100 µM.
Turning to `COc1ccc2[nH]cc(-c3nc(-c4c[nH]c5ncccc45)cs3)c2c1`, the GI50 was 2.66 µM and the TGI came out at 6.87 µM.
Consider `CCOC(=O)C(=Cc1cccc(Cl)c1)C(=O)OCC`, for which the GI50 is 3.61 µM and the TGI is 13.4 µM.
Take `C=CC(=O)N1CCC(C2CCNc3c(C(N)=O)c(-c4ccc(Oc5ccccc5)cc4)nn32)CC1` (centres undefined): the GI50 is 17.9 µM and the TGI came to 70 µM.
`Cc1ccc(/C=C/c2c(C(=O)/C=C/c3ccc(C(F)(F)F)cc3)c(C)nc3ccccc23)cc1`: the GI50 is 1.74 µM and the TGI is 3.14 µM.
On to `C=CCc1cccc(/C=N/NC(=O)CN2CCN(Cc3ccccc3)CC2)c1O`, for which the GI50 was 0.649 µM and the TGI is 4.04 µM.
With `N=c1ccn2c(n1)OC1C(O)C(CO)OC12` (centres undefined), the GI50 was 5.93 µM; the TGI is 359 µM and > 100 µM.
`C[C@H]1Oc2cc(cnc2N)-c2c(nn(C)c2C#N)CN(C)C(=O)c2ccc(F)cc21`: the GI50 is 47.9 µM and the TGI is above 100 µM.
With `COc1ccccc1N1CCN(CCCn2c(=O)c3c(OC)nc(C)cc3c(=O)n2-c2ccccc2)CC1`, the GI50 is above 100 µM and the TGI is above 100 µM.
For the compound `N#Cc1c(-c2ccc(F)cc2)c(-c2ccc(F)cc2)nn(CCO)c1=O`, the TGI was found to be 37.2 µM.
For `CC(=O)c1cc2c(o1)C(=O)c1ccccc1C2=O`, the GI50 was 0.173 µM; the TGI was 0.332 µM and 0.317 µM.
For `CCN(CC)c1nc(-c2ccc(Cl)cc2Cl)nc2ccccc12`, the GI50 is 22.8 µM and the TGI is 62.4 µM.
Regarding `Cc1nc2ccccc2nc1-c1ccc(N=[N+]([O-])c2ccc(-c3nc4ccccc4nc3C)cc2)cc1`, the TGI was above 100 µM.

In a further assay the test system is HOP-62 NSCLC. Put plainly: growth of human tumour cells (NCI), 48 h.
`Nc1nc(N)c(N=Nc2ccc([As](=O)(O)O)cc2)c(=O)[nH]1` gave a TGI above 100 µM.
For the compound `COc1ccc2[nH]cc(-c3nc(-c4c[nH]c5ncccc45)cs3)c2c1`, the GI50 is 5.23 µM and the TGI was above 100 µM.
`CCOC(=O)C(=Cc1cccc(Cl)c1)C(=O)OCC`: the GI50 is 2.69 µM and the TGI was determined as 7.58 µM.
On to `C=CC(=O)N1CCC(C2CCNc3c(C(N)=O)c(-c4ccc(Oc5ccccc5)cc4)nn32)CC1` (centres undefined), for which the GI50 is 19.5 µM and the TGI was found to be 67.7 µM.
With `Cc1ccc(/C=C/c2c(C(=O)/C=C/c3ccc(C(F)(F)F)cc3)c(C)nc3ccccc23)cc1`, the GI50 was 1.88 µM and the TGI was determined as 3.73 µM.
Regarding `C=CCc1cccc(/C=N/NC(=O)CN2CCN(Cc3ccccc3)CC2)c1O`, the GI50 is 2.25 µM and the TGI is 13.8 µM.
For `N=c1ccn2c(n1)OC1C(O)C(CO)OC12` (centres undefined), the GI50 was 0.326 µM and the TGI was 130 µM.
For `C[C@H]1Oc2cc(cnc2N)-c2c(nn(C)c2C#N)CN(C)C(=O)c2ccc(F)cc21`, the GI50 was 23 µM and the TGI was above 100 µM.
Consider `COc1ccccc1N1CCN(CCCn2c(=O)c3c(OC)nc(C)cc3c(=O)n2-c2ccccc2)CC1`, for which the GI50 is above 100 µM and the TGI was above 100 µM.
Regarding `N#Cc1c(-c2ccc(F)cc2)c(-c2ccc(F)cc2)nn(CCO)c1=O`, the TGI is above 76.1 µM.
As for `CC(=O)c1cc2c(o1)C(=O)c1ccccc1C2=O`, the GI50 was 0.163 µM and 0.186 µM; the TGI is 0.329 µM and 0.35 µM.
As to `CCN(CC)c1nc(-c2ccc(Cl)cc2Cl)nc2ccccc12`, the GI50 is 17.3 µM and the TGI came to 35.6 µM.
Compound `Cc1nc2ccccc2nc1-c1ccc(N=[N+]([O-])c2ccc(-c3nc4ccccc4nc3C)cc2)cc1` registered a TGI above 81.8 µM.

The subject of another assay is U251 CNS. Put plainly: growth of human tumour cells (NCI), 48 h.
`Nc1nc(N)c(N=Nc2ccc([As](=O)(O)O)cc2)c(=O)[nH]1` yielded a TGI above 100 µM.
Regarding `COc1ccc2[nH]cc(-c3nc(-c4c[nH]c5ncccc45)cs3)c2c1`, the GI50 was 3.83 µM and the TGI is above 100 µM.
Regarding `CCOC(=O)C(=Cc1cccc(Cl)c1)C(=O)OCC`, the GI50 was 4.47 µM and the TGI amounted to 15.9 µM.
With `C=CC(=O)N1CCC(C2CCNc3c(C(N)=O)c(-c4ccc(Oc5ccccc5)cc4)nn32)CC1` (centres undefined), the GI50 was 19.7 µM and the TGI worked out at 96.3 µM.
As for `Cc1ccc(/C=C/c2c(C(=O)/C=C/c3ccc(C(F)(F)F)cc3)c(C)nc3ccccc23)cc1`, the GI50 is 1.47 µM and the TGI came to 3.13 µM.
As for `C=CCc1cccc(/C=N/NC(=O)CN2CCN(Cc3ccccc3)CC2)c1O`, the GI50 was 2.13 µM and the TGI came to 14.9 µM.
`N=c1ccn2c(n1)OC1C(O)C(CO)OC12` (centres undefined): the GI50 is 2.11 µM and the TGI was above 1000 µM.
As for `C[C@H]1Oc2cc(cnc2N)-c2c(nn(C)c2C#N)CN(C)C(=O)c2ccc(F)cc21`, the GI50 is above 100 µM and the TGI was above 100 µM.
`COc1ccccc1N1CCN(CCCn2c(=O)c3c(OC)nc(C)cc3c(=O)n2-c2ccccc2)CC1`: the GI50 was above 100 µM and the TGI was above 100 µM.
Take `N#Cc1c(-c2ccc(F)cc2)c(-c2ccc(F)cc2)nn(CCO)c1=O`: the TGI was above 100 µM.
In the case of `CC(=O)c1cc2c(o1)C(=O)c1ccccc1C2=O`, the GI50 was 0.197 µM and 0.256 µM; the TGI was 0.378 µM and 0.682 µM.
With `CCN(CC)c1nc(-c2ccc(Cl)cc2Cl)nc2ccccc12`, the GI50 was 18 µM and the TGI was 37.2 µM.
Take `Cc1nc2ccccc2nc1-c1ccc(N=[N+]([O-])c2ccc(-c3nc4ccccc4nc3C)cc2)cc1`: the TGI is above 63.2 µM.

(Values after PubChem BioAssay (NCI).)
